Reference: paper PMC3641831 (Biochemistry, 2010)

System: poly(dA)•2poly(dT)
Assay: UV denaturation, triplex transition
Format: binding

SMILES: c1cc2ccc3cccc4ccc(c1)c2c34 [Compound 5, reference compound]
- stabilization of DNA triplex: does not stabilize
